The record followed here is patent US20260158017A1, “KIF18A INHIBITOR” (WIGEN BIOMEDICINE TECHNOLOGY (SHANGHAI) CO., LTD., priority 2021, published 2026).

As a reminder, the IC50 is the midpoint of a concentration-inhibition curve.

Structures are written as SMILES.

T1 sequence (Q8NI77 1-467): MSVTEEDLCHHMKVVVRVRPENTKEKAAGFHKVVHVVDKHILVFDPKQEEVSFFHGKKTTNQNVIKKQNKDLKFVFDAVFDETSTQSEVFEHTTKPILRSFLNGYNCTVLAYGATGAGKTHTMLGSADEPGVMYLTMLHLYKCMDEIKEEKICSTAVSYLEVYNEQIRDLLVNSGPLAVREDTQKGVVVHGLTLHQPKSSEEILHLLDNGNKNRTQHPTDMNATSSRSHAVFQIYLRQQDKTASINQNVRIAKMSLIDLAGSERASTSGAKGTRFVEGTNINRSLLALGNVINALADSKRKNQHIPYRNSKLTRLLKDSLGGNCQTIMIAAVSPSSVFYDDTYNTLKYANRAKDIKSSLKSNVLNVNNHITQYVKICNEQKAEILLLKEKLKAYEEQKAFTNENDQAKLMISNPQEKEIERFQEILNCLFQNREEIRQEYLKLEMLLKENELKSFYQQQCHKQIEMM
T1 sequence (P02550 whole entry partner): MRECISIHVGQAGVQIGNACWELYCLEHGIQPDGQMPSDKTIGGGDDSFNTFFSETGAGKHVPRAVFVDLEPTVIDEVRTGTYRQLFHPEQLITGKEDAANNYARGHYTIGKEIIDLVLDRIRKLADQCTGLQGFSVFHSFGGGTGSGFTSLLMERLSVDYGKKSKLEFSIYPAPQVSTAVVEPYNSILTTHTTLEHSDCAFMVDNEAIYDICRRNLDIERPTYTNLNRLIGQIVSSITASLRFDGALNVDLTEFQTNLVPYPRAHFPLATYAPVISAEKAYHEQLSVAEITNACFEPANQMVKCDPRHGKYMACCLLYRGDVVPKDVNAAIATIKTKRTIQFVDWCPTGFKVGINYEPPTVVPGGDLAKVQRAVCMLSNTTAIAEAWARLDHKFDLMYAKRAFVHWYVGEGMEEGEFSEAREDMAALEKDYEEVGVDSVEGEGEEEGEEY
T1 sequence (P02554 whole entry partner): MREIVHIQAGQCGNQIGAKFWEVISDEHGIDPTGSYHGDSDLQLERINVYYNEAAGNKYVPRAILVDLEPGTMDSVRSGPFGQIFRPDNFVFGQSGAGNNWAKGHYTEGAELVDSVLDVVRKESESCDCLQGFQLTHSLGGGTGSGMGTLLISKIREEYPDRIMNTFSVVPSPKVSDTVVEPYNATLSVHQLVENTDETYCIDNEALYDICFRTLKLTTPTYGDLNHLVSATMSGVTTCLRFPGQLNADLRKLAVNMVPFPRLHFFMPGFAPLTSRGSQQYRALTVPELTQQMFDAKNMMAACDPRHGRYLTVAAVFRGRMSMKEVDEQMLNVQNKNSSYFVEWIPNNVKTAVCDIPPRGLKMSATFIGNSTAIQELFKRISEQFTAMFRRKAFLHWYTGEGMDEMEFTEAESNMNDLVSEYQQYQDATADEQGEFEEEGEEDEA

The experiment addresses T1, Recombinant human KIF18A (1-467His-tagged) protein (Homo sapiens, UniProt Q8NI77).
T1 construct: Recombinant human KIF18A (1-467His-tagged) protein; His; made in house
Description: KIF18A enzyme assay (microtubule-stimulated ATPase activity, ADP-Glo). It is filed as biochemical. Conditions: 30 nM KIF18A, 75 μM ATP, 30 μg/mL pig microtubules; read-out: Inhibitory activity against KIF18A IC50. The gist of the method:
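Buffer 15 mM Tris pH 7.5, 10 mM MgCl2, 0.01% Pluronic F-68, 1 μM paclitaxel, 30 μg/mL pig microtubules; reactions at room temperature. IC50 from inhibition relative to DMSO.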
(ADP-Glo first removes unused ATP, then detects ADP through luciferase.)
On to `O=C(Nc1ccc(NS(=O)(=O)CCO)cc1N1CCC2(CC1)CC2)c1ccc(OCF)c(N2CCC(F)(F)CC2)c1` [Compound 513], for which the IC50 was at most 100 nM.
On to `C[C@@H]1CN(c2cc(C(=O)Nc3ccc(NS(=O)(=O)CCO)cc3N3CCC4(CC3)CC4)ccc2OCF)CCO1` [Compound 514], for which the IC50 is at most 100 nM.
With `C[C@H]1CN(c2cc(C(=O)Nc3ccc(NS(=O)(=O)CCO)cc3N3CCC4(CC3)CC4)ccc2OCF)CCO1` [Compound 515] the figure was at most 100 nM; with `O=C(Nc1ccc(NS(=O)(=O)CCO)cc1N1CCC2(CC1)CC2)c1ccc(OCF)c(N2CC(F)(F)C2)c1` [Compound 516], at most 100 nM; with `O=C(Nc1ccc(NS(=O)(=O)CCO)cc1N1CCC2(CC1)CC2)c1ccc(OCF)c(OCCC(F)(F)F)c1` [Compound 517], at most 100 nM.
In the case of `O=C(Nc1ccc(NS(=O)(=O)CCO)cc1N1CCC2(CC1)CC2)c1ccc(OCF)c(N2CCC3(CC3)C2)c1` [Compound 518], the IC50 is at most 100 nM.
Regarding `O=C(Nc1ccc(NS(=O)(=O)CCO)cc1N1CCC2(CC1)CC2)c1ccc(OCF)c(OC2CCC2)c1` [Compound 519], the IC50 was at most 100 nM.
With `CC1(F)CCN(c2cc(C(=O)Nc3ccc(NS(=O)(=O)CCO)cc3N3CCC4(CC3)CC4)ccc2OCF)C1` (centres unmarked) [Compound 520] the figure was at most 100 nM.
With `O=C(Nc1ccc(NS(=O)(=O)CCO)cc1N1CCC2(CC1)CC2)c1ccc(OCF)c(N2CCC(F)CC2)c1` [Compound 521] the figure was at most 100 nM; with `O=C(Nc1ccc(NS(=O)(=O)CCO)cc1N1CCC2(CC1)CC2)c1ccc(OCF)c(N2CC3CC3C2)c1` (centres unmarked) [Compound 522], at most 100 nM.
With `CC(C)(CO)Nc1cc(C(=O)Nc2ccc(NS(=O)(=O)CCO)cc2N2CCC3(CC2)CC3)ccc1OCF` [Compound 523] the figure was at most 100 nM.
As for `O=C(Nc1ccc(NS(=O)(=O)CCO)cc1N1CCC2(CC1)CC2)c1ccc(OCF)c(N2CCOCC2)c1` [Compound 524], the IC50 was at most 100 nM.
Turning to `C[C@@H](CO)S(=O)(=O)Nc1ccc(NC(=O)c2ccc(OCF)c(N3CCC(F)(F)CC3)c2)c(N2CCC3(CC2)CC3)c1` [Compound 525], the IC50 is at most 100 nM.
With `C[C@H](CO)S(=O)(=O)Nc1ccc(NC(=O)c2ccc(OCF)c(N3CCC(F)(F)CC3)c2)c(N2CCC3(CC2)CC3)c1` [Compound 526], the IC50 is at most 100 nM.
With `C[C@@H]1CN(c2cc(C(=O)Nc3ccc(NS(=O)(=O)[C@@H](C)CO)cc3N3CCC4(CC3)CC4)ccc2OCF)CCO1` [Compound 527] the figure was at most 100 nM.
With `C[C@@H]1CN(c2cc(C(=O)Nc3ccc(NS(=O)(=O)[C@H](C)CO)cc3N3CCC4(CC3)CC4)ccc2OCF)CCO1` [Compound 528] the figure was at most 100 nM; with `O=C(Nc1ccc(S(=O)(=O)NCCO)cc1N1CCC2(CC1)CC2)c1ccc(OCF)c(N2CCC(F)(F)CC2)c1` [Compound 529], 100 to 500 nM.
With `C[C@@H]1CN(c2cc(C(=O)Nc3ccc(S(=O)(=O)NCCO)cc3N3CCC4(CC3)CC4)ccc2OCF)CCO1` [Compound 530] the figure was 100 to 500 nM; with `C[C@H]1CN(c2cc(C(=O)Nc3ccc(S(=O)(=O)NCCO)cc3N3CCC4(CC3)CC4)ccc2OCF)CCO1` [Compound 531], 100 to 500 nM; with `O=C(Nc1ccc(S(=O)(=O)NCCO)cc1N1CCC2(CC1)CC2)c1ccc(OCF)c(N2CC(F)(F)C2)c1` [Compound 532], 100 to 500 nM.
As for `O=C(Nc1ccc(S(=O)(=O)NCCO)cc1N1CCC2(CC1)CC2)c1ccc(OCF)c(OCCC(F)(F)F)c1` [Compound 533], the IC50 lay within 100 to 500 nM.
With `O=C(Nc1ccc(S(=O)(=O)NCCO)cc1N1CCC2(CC1)CC2)c1ccc(OCF)c(N2CCC3(CC3)C2)c1` [Compound 534] the figure was 100 to 500 nM; with `O=C(Nc1ccc(S(=O)(=O)NCCO)cc1N1CCC2(CC1)CC2)c1ccc(OCF)c(OC2CCC2)c1` [Compound 535], 100 to 500 nM.
With `CC1(F)CCN(c2cc(C(=O)Nc3ccc(S(=O)(=O)NCCO)cc3N3CCC4(CC3)CC4)ccc2OCF)C1` (centres unmarked) [Compound 536] the figure was 100 to 500 nM.
In the case of `O=C(Nc1ccc(S(=O)(=O)NCCO)cc1N1CCC2(CC1)CC2)c1ccc(OCF)c(N2CCC(F)CC2)c1` [Compound 537], the IC50 fell in the range of 100 to 500 nM.
For `O=C(Nc1ccc(S(=O)(=O)NCCO)cc1N1CCC2(CC1)CC2)c1ccc(OCF)c(N2CC3CC3C2)c1` (centres unmarked) [Compound 538], the half-inhibitory concentration (IC50) lay in the range of 100 to 500 nM.
With `CC(C)(CO)Nc1cc(C(=O)Nc2ccc(S(=O)(=O)NCCO)cc2N2CCC3(CC2)CC3)ccc1OCF` [Compound 539] the figure was 100 to 500 nM; with `O=C(Nc1ccc(S(=O)(=O)NCCO)cc1N1CCC2(CC1)CC2)c1ccc(OCF)c(N2CCOCC2)c1` [Compound 540], 100 to 500 nM; with `C[C@@H](CO)NS(=O)(=O)c1ccc(NC(=O)c2ccc(OCF)c(N3CCC(F)(F)CC3)c2)c(N2CCC3(CC2)CC3)c1` [Compound 541], 100 to 500 nM.
As to `C[C@H](CO)NS(=O)(=O)c1ccc(NC(=O)c2ccc(OCF)c(N3CCC(F)(F)CC3)c2)c(N2CCC3(CC2)CC3)c1` [Compound 542], the IC50 is 100 to 500 nM.
As for `C[C@@H]1CN(c2cc(C(=O)Nc3ccc(S(=O)(=O)N[C@@H](C)CO)cc3N3CCC4(CC3)CC4)ccc2OCF)CCO1` [Compound 543], the IC50 was in the range of 100 to 500 nM.
With `C[C@H](CO)NS(=O)(=O)c1ccc(NC(=O)c2ccc(OCF)c(N3CCO[C@H](C)C3)c2)c(N2CCC3(CC2)CC3)c1` [Compound 544] the figure was 100 to 500 nM; with `O=C(Nc1ccc(NS(=O)(=O)CCO)cc1N1CCC2(CC1)CC2)c1ccc(OCF)c(N2CCC(F)(F)CC2)n1` [Compound 545], at most 100 nM; with `C[C@@H]1CN(c2nc(C(=O)Nc3ccc(NS(=O)(=O)CCO)cc3N3CCC4(CC3)CC4)ccc2OCF)CCO1` [Compound 546], at most 100 nM.
With `C[C@H]1CN(c2nc(C(=O)Nc3ccc(NS(=O)(=O)CCO)cc3N3CCC4(CC3)CC4)ccc2OCF)CCO1` [Compound 547] the figure was at most 100 nM; with `O=C(Nc1ccc(NS(=O)(=O)CCO)cc1N1CCC2(CC1)CC2)c1ccc(OCF)c(N2CC(F)(F)C2)n1` [Compound 548], at most 100 nM.
Consider `O=C(Nc1ccc(NS(=O)(=O)CCO)cc1N1CCC2(CC1)CC2)c1ccc(OCF)c(OCCC(F)(F)F)n1` [Compound 549], for which the IC50 is at most 100 nM.
With `O=C(Nc1ccc(NS(=O)(=O)CCO)cc1N1CCC2(CC1)CC2)c1ccc(OCF)c(N2CCC3(CC3)C2)n1` [Compound 550] the figure was at most 100 nM; with `O=C(Nc1ccc(NS(=O)(=O)CCO)cc1N1CCC2(CC1)CC2)c1ccc(OCF)c(OC2CCC2)n1` [Compound 551], at most 100 nM.
With `CC1(F)CCN(c2nc(C(=O)Nc3ccc(NS(=O)(=O)CCO)cc3N3CCC4(CC3)CC4)ccc2OCF)C1` (centres unmarked) [Compound 552] the figure was at most 100 nM.
With `O=C(Nc1ccc(NS(=O)(=O)CCO)cc1N1CCC2(CC1)CC2)c1ccc(OCF)c(N2CCC(F)CC2)n1` [Compound 553] the figure was at most 100 nM; with `O=C(Nc1ccc(NS(=O)(=O)CCO)cc1N1CCC2(CC1)CC2)c1ccc(OCF)c(N2CC3CC3C2)n1` (centres unmarked) [Compound 554], at most 100 nM; with `CC(C)(CO)Nc1nc(C(=O)Nc2ccc(NS(=O)(=O)CCO)cc2N2CCC3(CC2)CC3)ccc1OCF` [Compound 555], at most 100 nM.
For the molecule `O=C(Nc1ccc(NS(=O)(=O)CCO)cc1N1CCC2(CC1)CC2)c1ccc(OCF)c(N2CCOCC2)n1` [Compound 556], the IC50 was at most 100 nM.
With `C[C@@H](CO)S(=O)(=O)Nc1ccc(NC(=O)c2ccc(OCF)c(N3CCC(F)(F)CC3)n2)c(N2CCC3(CC2)CC3)c1` [Compound 557] the figure was at most 100 nM.
With `C[C@H](CO)S(=O)(=O)Nc1ccc(NC(=O)c2ccc(OCF)c(N3CCC(F)(F)CC3)n2)c(N2CCC3(CC2)CC3)c1` [Compound 558] the figure was at most 100 nM; with `C[C@@H]1CN(c2nc(C(=O)Nc3ccc(NS(=O)(=O)[C@@H](C)CO)cc3N3CCC4(CC3)CC4)ccc2OCF)CCO1` [Compound 559], at most 100 nM.
With `C[C@@H]1CN(c2nc(C(=O)Nc3ccc(NS(=O)(=O)[C@H](C)CO)cc3N3CCC4(CC3)CC4)ccc2OCF)CCO1` [Compound 560] the figure was at most 100 nM; with `O=C(Nc1ccc(S(=O)(=O)NCCO)cc1N1CCC2(CC1)CC2)c1ccc(OCF)c(N2CCC(F)(F)CC2)n1` [Compound 561], 100 to 500 nM.
As to `C[C@@H]1CN(c2nc(C(=O)Nc3ccc(S(=O)(=O)NCCO)cc3N3CCC4(CC3)CC4)ccc2OCF)CCO1` [Compound 562], the IC50 lay in the range of 100 to 500 nM.
With `C[C@H]1CN(c2nc(C(=O)Nc3ccc(S(=O)(=O)NCCO)cc3N3CCC4(CC3)CC4)ccc2OCF)CCO1` [Compound 563] the figure was 100 to 500 nM; with `O=C(Nc1ccc(S(=O)(=O)NCCO)cc1N1CCC2(CC1)CC2)c1ccc(OCF)c(N2CC(F)(F)C2)n1` [Compound 564], 100 to 500 nM; with `O=C(Nc1ccc(S(=O)(=O)NCCO)cc1N1CCC2(CC1)CC2)c1ccc(OCF)c(OCCC(F)(F)F)n1` [Compound 565], 100 to 500 nM.
With `O=C(Nc1ccc(S(=O)(=O)NCCO)cc1N1CCC2(CC1)CC2)c1ccc(OCF)c(N2CCC3(CC3)C2)n1` [Compound 566] the figure was 100 to 500 nM; with `O=C(Nc1ccc(S(=O)(=O)NCCO)cc1N1CCC2(CC1)CC2)c1ccc(OCF)c(OC2CCC2)n1` [Compound 567], 100 to 500 nM; with `CC1(F)CCN(c2nc(C(=O)Nc3ccc(S(=O)(=O)NCCO)cc3N3CCC4(CC3)CC4)ccc2OCF)C1` (centres unmarked) [Compound 568], 100 to 500 nM.
For the molecule `O=C(Nc1ccc(S(=O)(=O)NCCO)cc1N1CCC2(CC1)CC2)c1ccc(OCF)c(N2CCC(F)CC2)n1` [Compound 569], the concentration for half-maximal inhibition (IC50) was 100 to 500 nM.
`O=C(Nc1ccc(S(=O)(=O)NCCO)cc1N1CCC2(CC1)CC2)c1ccc(OCF)c(N2CC3CC3C2)n1` (centres unmarked) [Compound 570]: the IC50 lay in the range of 100 to 500 nM.
With `CC(C)(CO)Nc1nc(C(=O)Nc2ccc(S(=O)(=O)NCCO)cc2N2CCC3(CC2)CC3)ccc1OCF` [Compound 571] the figure was 100 to 500 nM.
